This passage reports Activity results from ChEMBL document CHEMBL1153094, “Spectroscopic and biological studies of a novel synthetic chlorin derivative with prospects for use in PDT” (Bioorg Med Chem, 2009).

Each structure is given as a SMILES string. The source made the active and inactive calls. No cut-off for these calls is given here.

A short description of data set [1]: Cytotoxicity against mouse LLC cells assessed as survival fraction at 0.1 to 1.5 uM after 4 hrs by MTS reduction assay under dark condition. The format is cell-based. The note with it: lewis lung carcinoma. For orientation: Formazan colour is commonly taken as a measure of viable cells.
A short description of data set [2]: Cytotoxicity against mouse LLC cells assessed as survival fraction at 0.1 to 1.5 uM after 12 hrs by MTS reduction assay under dark condition. The conditions noted are these: lewis lung carcinoma. The format is cell-based.
The test system of data set [3] is Lewis lung carcinoma cell line. Nature of the data set: Antiproliferative activity against mouse LLC cells assessed as survival fraction at 0.5 uM after 4 hrs pretreated with 15 J/cm2 red light-irradiation by MTS reduction assay. The format is functional.
Data set [4] relates to Lewis lung carcinoma cell line. Nature of the data set: Antiproliferative activity against mouse LLC cells assessed as survival fraction at 0.5 uM dissolved in DMSO after 4 hrs pretreated with 15 J/cm2 red light-irradiation by MTS reduction assay. The format is functional.
Data set [5] deals with Lewis lung carcinoma cell line. Nature of the data set: Antiproliferative activity against mouse LLC cells assessed as survival fraction at 0.5 uM dissolved in DMSO after 12 hrs pretreated with 15 J/cm2 red light-irradiation by MTS reduction assay. The format is functional.
For data set [6], the system named is Lewis lung carcinoma cell line. Nature of the data set: Antiproliferative activity against mouse LLC cells assessed as survival fraction at 0.5 uM in liposomal delivery system after 4 hrs pretreated with 15 J/cm2 red light-irradiation by MTS reduction assay. The format is functional.
Data set [7] relates to Lewis lung carcinoma cell line. As to the kind of experiment: Antiproliferative activity against mouse LLC cells assessed as survival fraction at 0.5 uM in liposomal delivery system after 12 hrs pretreated with 15 J/cm2 red light-irradiation by MTS reduction assay. The format is functional.
Data set [8] in a line: Cytotoxicity against mouse LLC cells assessed as change in cell morphology at 2 uM after 12 hrs by fluorescence microscopy under dark condition. The format is cell-based. The note with it: lewis lung carcinoma.
Data set [9] concerns Lewis lung carcinoma cell line. As to the kind of experiment: Antiproliferative activity against mouse LLC cells assessed as F-actin construction damage at 2 uM in liposomal delivery system after 12 hrs pretreated with 15 J/cm2 red light-irradiation by fluorescence microscopy. The format is functional, cell-based.
The test system of data set [10] is Lewis lung carcinoma cell line. As to the kind of experiment: Antiproliferative activity against mouse LLC cells assessed as nuclear damage at 2 uM in liposomal delivery system after 12 hrs pretreated with 15 J/cm2 red light-irradiation by fluorescence microscopy. The format is functional, cell-based.
The test system of data set [11] is Lewis lung carcinoma cell line. As to the kind of experiment: Antiproliferative activity against mouse LLC cells assessed as DNA […] at 2 uM in liposomal delivery system after 12 hrs pretreated with 15 J/cm2 red light-irradiation by fluorescence microscopy. The format is functional, cell-based.
Data set [12] has as its system Lewis lung carcinoma cell line. As to the kind of experiment: Antiproliferative activity against mouse LLC cells assessed as survival fraction at 5 uM after 24 hrs pretreated with 15 J/cm2 red light-irradiation by MTS reduction assay. The format is functional.

For the molecule `CCCCCCCC1c2cc3[nH]c(cc4nc(cc5[nH]c(cc(n2)[C@]1(C)CC(=O)N(C)C)c(C)c5CCC(=O)O)C(CCC(=O)O)=C4C)cc3C` (mixture of isomers), the Activity entry in data set [1] is “Non-toxic”; in data set [2], “Non-toxic”; in data set [3] it was 22.3%; in data set [4], 70.6%; in data set [5], 74.4%; in [6], 20.3%. The Activity is 34.8% in data set [7] and “Toxic” in data set [8]. Besides, the result in [9], in [10] and in [11] was Active.

As to `C=CC1=C(C)c2cc3[nH]c(cc4nc(cc5[nH]c(cc1n2)c(C)c5CCC(=O)[O-])C(CCC(=O)[O-])=C4C)c(C)c3C=C.[Na+].[Na+]` [PROTOPORPHYRIN DISODIUM], the Activity in data set [12] was found to be 60.7%.
